# Reference: the Kinase Knowledgebase extract (Sharma et al. 2016)
# What was measured:
# Assay in all cases: Enzyme Assay
# PIK3CD (Human) = PIK3CD (Human) (UniProt O00329)
# PIK3CG (human) = PIK3CG (human) (UniProt P48736)
# PIK3CB (Human) = PIK3CB (Human) (UniProt P42338)
# PIK3CA (human) = PIK3CA (human) (UniProt P42336)
# Sequence of PIK3CA (human) (P42336 whole entry, looked up): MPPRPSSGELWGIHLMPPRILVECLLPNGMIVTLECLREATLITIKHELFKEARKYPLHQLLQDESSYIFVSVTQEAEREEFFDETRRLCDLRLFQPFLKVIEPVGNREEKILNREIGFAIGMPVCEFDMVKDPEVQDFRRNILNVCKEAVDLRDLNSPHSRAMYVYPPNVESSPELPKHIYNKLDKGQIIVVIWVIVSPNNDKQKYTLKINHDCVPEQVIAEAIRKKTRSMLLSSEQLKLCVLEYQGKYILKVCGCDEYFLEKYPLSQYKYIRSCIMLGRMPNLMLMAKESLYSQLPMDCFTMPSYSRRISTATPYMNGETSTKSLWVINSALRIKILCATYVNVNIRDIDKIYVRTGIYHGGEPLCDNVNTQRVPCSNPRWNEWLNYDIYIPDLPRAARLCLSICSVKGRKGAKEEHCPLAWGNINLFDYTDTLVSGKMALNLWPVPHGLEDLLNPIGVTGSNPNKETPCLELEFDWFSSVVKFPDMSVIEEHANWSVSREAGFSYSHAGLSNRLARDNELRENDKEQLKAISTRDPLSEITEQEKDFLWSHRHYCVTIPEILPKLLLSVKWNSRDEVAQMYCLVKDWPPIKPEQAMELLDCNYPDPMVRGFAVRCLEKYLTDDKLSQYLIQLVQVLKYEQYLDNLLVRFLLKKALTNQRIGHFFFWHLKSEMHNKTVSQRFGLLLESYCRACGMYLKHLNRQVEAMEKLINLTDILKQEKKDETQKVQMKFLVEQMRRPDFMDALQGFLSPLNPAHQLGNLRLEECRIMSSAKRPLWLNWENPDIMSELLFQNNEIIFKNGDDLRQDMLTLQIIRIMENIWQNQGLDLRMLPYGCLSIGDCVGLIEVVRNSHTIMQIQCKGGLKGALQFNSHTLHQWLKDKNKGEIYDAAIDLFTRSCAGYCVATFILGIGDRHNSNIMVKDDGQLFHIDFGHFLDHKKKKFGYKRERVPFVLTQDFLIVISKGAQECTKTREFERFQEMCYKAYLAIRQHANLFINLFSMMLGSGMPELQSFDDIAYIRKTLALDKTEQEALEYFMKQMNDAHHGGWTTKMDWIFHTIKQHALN
# Sequence of PIK3CB (Human) (P42338 whole entry, looked up): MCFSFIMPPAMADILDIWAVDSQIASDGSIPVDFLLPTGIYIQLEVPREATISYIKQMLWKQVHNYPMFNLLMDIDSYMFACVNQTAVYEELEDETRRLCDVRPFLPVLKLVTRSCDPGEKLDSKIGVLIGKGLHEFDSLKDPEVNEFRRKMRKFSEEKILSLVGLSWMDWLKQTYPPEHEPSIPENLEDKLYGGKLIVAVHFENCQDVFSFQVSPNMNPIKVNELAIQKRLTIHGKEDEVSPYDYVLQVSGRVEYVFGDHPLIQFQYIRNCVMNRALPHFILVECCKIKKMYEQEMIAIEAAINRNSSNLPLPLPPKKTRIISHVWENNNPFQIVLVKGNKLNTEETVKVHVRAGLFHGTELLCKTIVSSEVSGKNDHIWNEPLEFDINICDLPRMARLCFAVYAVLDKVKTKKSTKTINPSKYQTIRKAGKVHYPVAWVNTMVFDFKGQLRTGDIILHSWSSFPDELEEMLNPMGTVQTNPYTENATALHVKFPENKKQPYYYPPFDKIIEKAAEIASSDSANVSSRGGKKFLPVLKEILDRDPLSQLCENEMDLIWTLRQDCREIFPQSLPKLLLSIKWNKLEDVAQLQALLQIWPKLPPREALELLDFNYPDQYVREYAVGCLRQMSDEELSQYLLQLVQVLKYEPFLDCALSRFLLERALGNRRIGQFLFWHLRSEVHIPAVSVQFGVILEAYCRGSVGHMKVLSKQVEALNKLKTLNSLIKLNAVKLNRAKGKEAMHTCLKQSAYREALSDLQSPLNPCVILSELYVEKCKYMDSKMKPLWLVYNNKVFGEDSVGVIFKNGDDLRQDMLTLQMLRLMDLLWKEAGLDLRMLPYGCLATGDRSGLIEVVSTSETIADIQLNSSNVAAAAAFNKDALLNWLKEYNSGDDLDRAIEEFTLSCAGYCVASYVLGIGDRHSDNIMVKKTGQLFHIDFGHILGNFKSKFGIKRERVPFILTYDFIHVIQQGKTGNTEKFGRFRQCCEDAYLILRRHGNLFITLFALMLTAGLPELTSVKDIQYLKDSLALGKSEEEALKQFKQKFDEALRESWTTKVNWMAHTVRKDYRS
# Sequence of PIK3CG (human) (P48736 whole entry, looked up): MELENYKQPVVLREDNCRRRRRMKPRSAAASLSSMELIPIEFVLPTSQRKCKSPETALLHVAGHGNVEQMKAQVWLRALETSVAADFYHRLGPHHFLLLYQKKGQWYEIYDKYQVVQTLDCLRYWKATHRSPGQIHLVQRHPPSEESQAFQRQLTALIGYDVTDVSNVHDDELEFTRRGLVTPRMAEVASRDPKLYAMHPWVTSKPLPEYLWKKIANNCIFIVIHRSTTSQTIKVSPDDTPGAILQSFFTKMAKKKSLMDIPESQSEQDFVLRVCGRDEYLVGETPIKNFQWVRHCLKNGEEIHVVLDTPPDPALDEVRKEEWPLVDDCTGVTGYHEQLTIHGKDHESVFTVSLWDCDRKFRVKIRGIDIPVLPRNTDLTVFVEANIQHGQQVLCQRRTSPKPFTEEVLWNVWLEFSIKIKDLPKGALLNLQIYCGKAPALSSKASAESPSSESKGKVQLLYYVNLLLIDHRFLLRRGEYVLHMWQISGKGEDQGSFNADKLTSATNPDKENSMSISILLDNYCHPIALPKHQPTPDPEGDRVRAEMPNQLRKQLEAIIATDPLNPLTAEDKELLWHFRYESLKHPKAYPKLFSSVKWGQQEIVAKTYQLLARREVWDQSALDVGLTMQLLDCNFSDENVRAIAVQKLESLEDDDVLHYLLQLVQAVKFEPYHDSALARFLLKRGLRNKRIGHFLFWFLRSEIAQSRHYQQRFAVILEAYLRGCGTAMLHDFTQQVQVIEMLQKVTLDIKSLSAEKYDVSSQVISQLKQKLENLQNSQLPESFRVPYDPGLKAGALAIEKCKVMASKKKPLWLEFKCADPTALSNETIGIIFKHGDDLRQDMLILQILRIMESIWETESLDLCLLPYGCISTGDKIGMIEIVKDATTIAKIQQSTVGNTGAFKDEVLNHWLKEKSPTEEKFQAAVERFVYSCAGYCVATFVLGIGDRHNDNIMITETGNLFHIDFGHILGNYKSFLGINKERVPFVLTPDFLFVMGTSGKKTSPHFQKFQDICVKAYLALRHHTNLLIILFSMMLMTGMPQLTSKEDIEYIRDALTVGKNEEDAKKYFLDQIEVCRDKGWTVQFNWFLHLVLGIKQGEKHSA
# Sequence of PIK3CD (Human) (O00329 whole entry, looked up): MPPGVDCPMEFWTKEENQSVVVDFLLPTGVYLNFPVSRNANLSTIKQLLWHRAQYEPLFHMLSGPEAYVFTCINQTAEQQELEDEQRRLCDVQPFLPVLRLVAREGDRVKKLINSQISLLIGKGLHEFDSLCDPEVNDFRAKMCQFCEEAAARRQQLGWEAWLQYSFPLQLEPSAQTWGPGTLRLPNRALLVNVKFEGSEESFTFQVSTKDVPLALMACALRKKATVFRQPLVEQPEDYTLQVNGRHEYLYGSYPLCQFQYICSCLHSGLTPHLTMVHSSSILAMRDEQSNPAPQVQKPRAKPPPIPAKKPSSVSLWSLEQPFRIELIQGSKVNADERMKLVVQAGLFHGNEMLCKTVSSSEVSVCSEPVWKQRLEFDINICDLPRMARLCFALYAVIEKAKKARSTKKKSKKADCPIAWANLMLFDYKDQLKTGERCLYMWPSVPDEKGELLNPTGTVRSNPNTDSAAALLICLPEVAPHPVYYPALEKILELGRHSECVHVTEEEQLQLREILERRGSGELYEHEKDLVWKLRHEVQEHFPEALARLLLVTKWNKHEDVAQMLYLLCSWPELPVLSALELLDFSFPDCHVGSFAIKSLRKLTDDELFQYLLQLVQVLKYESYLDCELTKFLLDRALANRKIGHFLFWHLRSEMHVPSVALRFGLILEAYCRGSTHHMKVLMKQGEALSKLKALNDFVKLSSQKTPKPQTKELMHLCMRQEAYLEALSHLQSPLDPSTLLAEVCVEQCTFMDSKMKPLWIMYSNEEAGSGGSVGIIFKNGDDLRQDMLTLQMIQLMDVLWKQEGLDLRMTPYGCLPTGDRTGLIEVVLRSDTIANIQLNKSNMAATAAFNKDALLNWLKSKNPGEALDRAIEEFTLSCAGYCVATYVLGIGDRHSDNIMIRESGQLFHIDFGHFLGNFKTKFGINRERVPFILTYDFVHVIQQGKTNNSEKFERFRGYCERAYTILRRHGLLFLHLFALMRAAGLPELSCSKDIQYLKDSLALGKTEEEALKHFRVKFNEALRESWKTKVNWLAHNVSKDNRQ
Structure (SMILES),IC50 (PIK3CD (Human)) [nM],IC50 (PIK3CG (human)) [nM],IC50 (PIK3CB (Human)) [nM],IC50 (PIK3CA (human)) [nM]
C[C@H](Nc1ncnc2scnc12)c1cc2cccc(C(=O)N3CCOCC3)c2c(=O)n1-c1ccccc1,100 to 1000,–,> 10000,> 10000
COc1ccccc1-c1cccc2cc([C@H](C)Nc3ncnc4scnc34)n(-c3ccccc3)c(=O)c12,< 100,100 to 1000,–,–
C[C@H](Nc1ncnc2scnc12)c1cc2cccc(-c3ccc(=O)n(C)c3)c2c(=O)n1-c1ccccc1,< 100,100 to 1000,–,100 to 1000
C[C@H](Nc1ncnc2scnc12)c1cc2cccc(-c3cnc(OCc4ccccc4)nc3)c2c(=O)n1-c1ccccc1,< 100,100 to 1000,–,–
C[C@H](Nc1ncnc2scnc12)c1cc2cccc(/C=C/c3ccccc3)c2c(=O)n1-c1ccccc1,100 to 1000,< 100,–,–
C[C@H](Nc1ncnc2scnc12)c1cc2cccc(-c3ccnnc3)c2c(=O)n1-c1ccccc1,< 100,< 100,> 10000,–
COc1ncc(-c2cccc3cc([C@H](C)Nc4ncnc5scnc45)n(C4CC4)c(=O)c23)cn1,< 100,100 to 1000,–,–
Cc1nc2c(N[C@@H](C)c3cc4cccc(-c5cnn(C)c5)c4c(=O)n3-c3ccccc3)ncnc2s1,–,–,> 10000,> 10000
C[C@H](Nc1ncnc2scnc12)c1cc2cccc(-c3cncnc3)c2c(=O)n1-c1ccccc1,< 100,< 100,–,–
C[C@H](Nc1ncnc2scnc12)c1cc2cccc(C=O)c2c(=O)n1-c1ccccc1,< 100,< 100,100 to 1000,–
C[C@H](Nc1ncnc2scnc12)c1cc2cccc(Cl)c2c(=O)n1C,< 100,< 100,< 100,–
C[C@H](Nc1ncnc2scnc12)c1cc2cccc(-c3cnn(C)c3)c2c(=O)n1-c1cccc(F)c1,< 100,< 100,–,–
Cc1nsc2cc(C(C)Nc3ncnc4scnc34)n(-c3ccccc3)c(=O)c12 (stereo unspecified),< 100,–,–,> 10000
C[C@H](Nc1ncnc2scnc12)c1cc2cccc(-c3cccc(N(C)C)c3)c2c(=O)n1-c1ccccc1,< 100,< 100,–,100 to 1000
CC(C)Cn1cc(-c2cccc3cc([C@H](C)Nc4ncnc5scnc45)n(-c4ccccc4)c(=O)c23)cn1,< 100,100 to 1000,> 10000,–
CCCCc1cccc2cc([C@H](C)Nc3ncnc4scnc34)n(-c3ccccc3)c(=O)c12,< 100,< 100,–,–
CCCn1cc(-c2cccc3cc([C@H](C)Nc4ncnc5scnc45)n(-c4ccccc4)c(=O)c23)cn1,< 100,100 to 1000,–,–
C[C@H](Nc1ncnc2scnc12)c1cc2cccc(-c3cnn(C)c3)c2c(=O)n1C,100 to 1000,–,–,–
C[C@H](Nc1ncnc2scnc12)c1cc2cccc(-c3cnn(CCN4CCOCC4)c3)c2c(=O)n1-c1ccccc1,< 100,< 100,> 10000,–

Structure (SMILES),IC50 (PIK3CD (Human)) [nM],IC50 (PIK3CG (human)) [nM],IC50 (PIK3CB (Human)) [nM],IC50 (PIK3CA (human)) [nM]
C[C@H](Nc1ncnc2scnc12)c1cc2cccc(C(=O)O)c2c(=O)n1-c1ccccc1,–,–,> 10000,> 10000
Cc1sc2ncnc(N[C@@H](C)c3cc4cccc(Cl)c4c(=O)n3-c3ccccc3)c2c1C,< 100,–,> 10000,> 10000
C[C@H](Nc1ccnc2scnc12)c1cc2cccc(Cl)c2c(=O)n1-c1cccc(F)c1,< 100,< 100,100 to 1000,–
C[C@H](Nc1ncnc2scnc12)c1cc2cccc(-c3ccncc3)c2c(=O)n1-c1ccccc1,< 100,< 100,–,100 to 1000
Cc1nn(C)cc1-c1cccc2cc([C@H](C)Nc3ncnc4scnc34)n(-c3ccccc3)c(=O)c12,< 100,< 100,–,100 to 1000
COc1ncc(-c2cccc3cc([C@H](C)Nc4ncnc5scnc45)n(-c4cccc(F)c4)c(=O)c23)cn1,< 100,100 to 1000,> 10000,–
C[C@H](Nc1ncnc2scnc12)c1cc2cccc(-c3ccc(F)c(F)c3)c2c(=O)n1-c1ccccc1,< 100,< 100,> 10000,–
C[C@H](Nc1ncnc2scnc12)c1cc2scc(-c3cnn(C)c3)c2c(=O)n1-c1ccccc1,100 to 1000,100 to 1000,> 10000,–
C[C@H](Nc1nc(Cl)nc2scnc12)c1cc2cccc(-c3cnn(C)c3)c2c(=O)n1-c1ccccc1,< 100,100 to 1000,–,–
C[C@H](Nc1ncnc2scnc12)c1cc2cccc(-c3ccnc(C(F)(F)F)c3)c2c(=O)n1-c1ccccc1,< 100,100 to 1000,–,–
C[C@H](Nc1ncnc2scnc12)c1cc2cccc(Cl)c2c(=O)n1-c1cccc(C(F)(F)F)c1,100 to 1000,100 to 1000,–,> 10000
COc1ncc(-c2cccc3cc([C@H](C)Nc4ccnc5scnc45)n(-c4ccccc4)c(=O)c23)cn1,< 100,100 to 1000,> 10000,–
C[C@H](Nc1ccnc2scnc12)c1cc2cccc(-c3cnn(C)c3)c2c(=O)n1-c1ccccc1,< 100,< 100,–,–
Cc1ccnc2cc(C(C)Nc3ncnc4scnc34)n(-c3ccccc3)c(=O)c12 (stereo unspecified),< 100,< 100,–,> 10000
C[C@H](Nc1ncnc2scnc12)c1cc2scc(Cl)c2c(=O)n1-c1ccccc1,< 100,< 100,< 100,–
C[C@H](Nc1ncnc2scnc12)c1cc2ccccc2c(=O)n1-c1ccccc1,< 100,< 100,–,–
Cc1cccc2cc([C@H](C)Nc3ncnc4scnc34)n(-c3cccc(F)c3)c(=O)c12,< 100,< 100,100 to 1000,–
C[C@H](Nc1ncnc2scnc12)c1cc2cccc(-c3ccoc3)c2c(=O)n1-c1ccccc1,< 100,< 100,–,100 to 1000
Cc1ncc(-c2cccc3cc([C@H](C)Nc4ncnc5scnc45)n(C4CC4)c(=O)c23)cn1,< 100,100 to 1000,–,–

# Continued, values first:
IC50 (PIK3CD (Human)) [nM],IC50 (PIK3CG (human)) [nM],IC50 (PIK3CB (Human)) [nM],IC50 (PIK3CA (human)) [nM],Structure (SMILES)
< 100,100 to 1000,> 10000,–,Cc1ncc(-c2cccc3cc([C@H](C)Nc4ncnc5scnc45)n(-c4ccccc4)c(=O)c23)cn1
< 100,< 100,–,100 to 1000,Cc1cc(-c2cccc3cc([C@H](C)Nc4ncnc5scnc45)n(-c4ccccc4)c(=O)c23)ccn1
< 100,< 100,–,100 to 1000,Cc1cncc(-c2cccc3cc([C@H](C)Nc4ncnc5scnc45)n(-c4ccccc4)c(=O)c23)c1
< 100,< 100,–,–,COc1ccc(-c2cccc3cc([C@H](C)Nc4ncnc5scnc45)n(-c4ccccc4)c(=O)c23)cc1
< 100,< 100,–,–,C[C@H](Nc1ncnc2scnc12)c1cc2cccc(-c3cn[nH]c3)c2c(=O)n1-c1ccccc1
< 100,< 100,–,100 to 1000,COc1cc(-c2cccc3cc([C@H](C)Nc4ncnc5scnc45)n(-c4ccccc4)c(=O)c23)ccn1
< 100,< 100,–,–,Cc1cc(-c2cccc3cc([C@H](C)Nc4ncnc5scnc45)n(-c4ccccc4)c(=O)c23)cnc1C
< 100,< 100,–,–,COc1ncc(-c2cccc3cc([C@H](C)Nc4ncnc5scnc45)n(-c4ccccc4)c(=O)c23)cc1C(F)(F)F
< 100,< 100,–,100 to 1000,C[C@H](Nc1ncnc2scnc12)c1cc2cccc(-c3ccc(N)nc3)c2c(=O)n1-c1ccccc1
< 100,< 100,–,–,Cc1ccc(-c2cccc3cc([C@H](C)Nc4ncnc5scnc45)n(-c4ccccc4)c(=O)c23)cn1
< 100,< 100,> 10000,–,C[C@H](Nc1ncnc2scnc12)c1cc2cccc(-c3cncc(F)c3)c2c(=O)n1-c1ccccc1
< 100,< 100,> 10000,–,C[C@H](Nc1ncnc2scnc12)c1cc2cccc(-c3ccc(N(C)C)nc3)c2c(=O)n1-c1ccccc1
< 100,< 100,–,100 to 1000,C[C@H](Nc1ncnc2scnc12)c1cc2cccc(-c3cnc(N)nc3)c2c(=O)n1-c1ccccc1
< 100,< 100,–,–,COc1ncc(-c2cccc3cc([C@H](C)Nc4ncnc5scnc45)n(-c4ccccc4)c(=O)c23)cc1C
< 100,< 100,–,–,Cc1cc(-c2cccc3cc([C@H](C)Nc4ncnc5scnc45)n(-c4ccccc4)c(=O)c23)cnc1F
100 to 1000,100 to 1000,–,–,COc1cnccc1-c1cccc2cc([C@H](C)Nc3ncnc4scnc34)n(-c3ccccc3)c(=O)c12
< 100,< 100,–,100 to 1000,C[C@H](Nc1ncnc2scnc12)c1cc2cccc(-c3cnc4c(c3)CCCO4)c2c(=O)n1-c1ccccc1
< 100,< 100,–,–,COc1ccc(-c2cccc3cc([C@H](C)Nc4ncnc5scnc45)n(-c4ccccc4)c(=O)c23)cn1
< 100,100 to 1000,> 10000,–,CC(C)n1cc(-c2cccc3cc([C@H](C)Nc4ncnc5scnc45)n(-c4ccccc4)c(=O)c23)cn1
< 100,< 100,–,100 to 1000,C[C@H](Nc1ncnc2scnc12)c1cc2cccc(-c3cnc4ccoc4c3)c2c(=O)n1-c1ccccc1
< 100,< 100,–,–,CCn1cc(-c2cccc3cc([C@H](C)Nc4ncnc5scnc45)n(-c4ccccc4)c(=O)c23)cn1
< 100,100 to 1000,–,–,Cc1c(-c2cccc3cc([C@H](C)Nc4ncnc5scnc45)n(-c4ccccc4)c(=O)c23)cnn1C
< 100,< 100,–,–,C[C@H](Nc1ncnc2scnc12)c1cc2cccc(-c3cccnc3)c2c(=O)n1-c1ccccc1
< 100,< 100,–,100 to 1000,COc1ncc(-c2cccc3cc([C@H](C)Nc4ncnc5scnc45)n(-c4ccccc4)c(=O)c23)s1
< 100,< 100,–,100 to 1000,COc1cccc(-c2cccc3cc([C@H](C)Nc4ncnc5scnc45)n(-c4ccccc4)c(=O)c23)c1
–,–,> 10000,> 10000,C[C@H](Nc1ncnc2scnc12)c1cc2cccc(-c3cnc4c(c3)CCCC4)c2c(=O)n1-c1ccccc1
